Patent US4068001A, “Method of medical treatment of pancreatic insufficiency” (priority 1976, dated 1978)

Key:
mice of ICR-JCL strain = test: Acute toxicity test in mice (single high dose); format: in vivo, mouse (ICR-JCL strain)
Text: (§1) In order to evaluate the acute toxicity of a single high dose administration of Coenzyme Q10, male and female rats of Wistar strain and male and female mice of ICR-JCL strain were used, and oral, intramuscular, subcutaneous, and intravenous administrations were studied. For the oral administration of Coenzyme Q10, a gum Arabic suspension was used. For the intramuscular, subcutaneous and intravenous administrations, Coenzyme Q10 was used as a solution containing a nonionic surfactant, Nikkol HCO-60 . Nikkol HCO-60 is a trade mark of a non-ionic surfacent comprised of hydrogenated castor oil/polyoxyethylene-60 mole ether available from Nikko Chemicals, Co. Ltd., Japan.
(§2) Observation was carried out for 7 days by using six males and six females for each dose group.

[1] = tested on: pancreas external secretion; test: Quantity of pancreatic juice secreted after pancreozymin in anesthetized rats; format: in vivo, rat (male Wistar)
Method: (§3) Male Wistar rats weighing 300-400 g were fasted for 14-20 hours and then anesthetized with 1 g/Kg of urethane. A stainless steel tube was inserted into the common bile duct at the opening to the duodenum and fixed thereto (pancreatic cannula) to take out pancreatic juice. The common bile duct was ligated at an upper portion and a polyethylene tube was inserted into the bile duct and fixed thereto to allow the bile to flow outward. The pylorus was ligated. The medicament was administered into a femoral vein through the polyethylene tube.
(§4) The quantity of the pancreatic juice was measured by using a calibrated silicone rubber tube fitted to the pancreatic duct cannula. The tube was changed every 10 minutes.
(§5) Coenzyme Q10 was solubilized in water with Nikkol HCO-60 before use. An aqueous solution of Nikkol HCO-60 was used as placebo.
(§6) Coenzyme Q10 (3 mg/100 g body weight) and the placebo were administered to the rats through the femoral vein. After 60 minutes, pancreozymin (0.2 Crick, Harper and Raper unit/100 g body weight) was administered through the femoral vein.
(§7) FIGS. 1 and 2 show the quantities of pancreatic juice secreted when placebo was administered and when Coenzyme Q10 was administered, respectively. In FIGS. 1 and 2, the ordinates represent the quantity of the pancreatic juice secreted (μl/min./100 g body weight) and the abscissae represent time (min.). FIGS. 3 and 4 show the quantities of amylase secreted when placebo was administered and when Coenzyme Q10 was administered, respectively. In FIGS. 3 and 4, the ordinates represent quantity of amylase secreted (unit/min./100 g body weight) and the abscissae represent time (min.). In FIGS. 1-4, the values are average values ± standard deviation. The arrows in the figures indicate the times when Coenzyme Q10, placebo and pancreozymin were administered.

rats of Wistar strain [2] = test: Subacute oral toxicity test in rats (5 weeks); format: in vivo, rat (Wistar strain)
Method: (§8) Coenzyme Q10 was compulsorily and orally administered every day for 5 weeks to each group consisting of 10 male rats and 10 female rats of Wistar strain. The dose was 40, 200, and 1000 mg/Kg/day, respectively. Coenzyme Q10 was used in the form of gum Arabic suspension, while the solution containing gum Arabic alone was used as the control group. Collection of blood and urine samples and autopsies were carried out 5 weeks after the initiation of administration.

rats of Wistar strain [3] = test: Acute toxicity test in rats (single high dose); format: in vivo, rat (Wistar strain)
Text: as §1, §2

rabbits = test: Subacute oral toxicity test in rabbits (23 days); format: in vivo, rabbit
Method: Coenzyme Q10 was compulsorily and orally administered every day for 23 days to each group consisting of six male rabbits and five female rabbits. The dose was 6, 60 and 600 mg/Kg/day, respectively. Coenzyme Q10 was used in the form of gum Arabic suspension, whereas the solution containing gum Arabic alone was used as the control group, On the 24th day, blood samples were collected from all the animals, and three males and two females from each group were then selectively autopsied.

[4] = Solubility of Coenzyme Q10 (properties); format: physicochemical
Text: Coenzymes Q used in the present invention, for example, Coenzyme Q10 (the compound in which n = 10 in the above formula), can be mainly obtained synthetically, although it is possible to extract Coenzyme Q from animal organs. The physical and chemical properties of Coenzyme Q10 produced synthetically are as follows.

mice = test: Teratogenesis test in mice; format: in vivo, mouse; conditions: mice, 6, 60, 600 mg/Kg/day
[5] = Overall conclusion of acute, subacute, chronic toxicity and teratogenesis tests; format: in vivo; conditions: conclusion from all toxicity tests
Text: as §1, §2, §8
Coenzyme Q10 was compulsorily and orally administered every day for 23 days to each group consisting of six male rabbits and five female rabbits. […]

[6] = tested on: amylase of the pancreatic juice; test: Quantity of amylase secreted in pancreatic juice after pancreozymin in anesthetized rats; format: in vivo, rat (male Wistar)
Method: as §3, §4
Amylase activity of the pancreatic juice was determined by Kanno's method [Journal of Physiology (London) Vol. 245, P. 599 (1975)]. One amylase unit indicates a unit of amylase activity producing 1 mg of maltose by incubation of 37° C for 5 minutes.
as §5, §6, §7

rats = test: Teratogenesis test in rats; format: in vivo, rat; conditions: rats, 6, 60, 600 mg/Kg/day
rats of Wistar strain [7] = test: Chronic oral toxicity test in rats (26 weeks); format: in vivo, rat (Wistar strain)
Method: Coenzyme Q10 was compulsorily and orally administered to each group consisting of 10 male rats and 10 female rats of Wistar strain for consecutive 26 weeks in a ratio of 6 days a week. The dose was 6, 60 and 600 mg/Kg/day, respectively. Coenzyme Q10 was used in the form of gum Arabic suspension, whereas the solution containing gum Arabic alone is used as the control group. Collection of blood and urine samples and autopsies were carried out 26 weeks after the administration.

[8] = any administration group, 7 days
[9] = intramuscular, Nikkol HCO-60 solution, single dose, 7 days
[10] = intravenous, Nikkol HCO-60 solution, single dose, 7 days
[11] = maximum dose in each administration route
[12] = oral, gum Arabic suspension, single dose, 7 days observation
[13] = relative to maximum doses of Table 1
[14] = subcutaneous, Nikkol HCO-60 solution, single dose, 7 days
[15] = 3 mg/100 g femoral vein, after pancreozymin
[16] = 10 minutes after pancreozymin, Coenzyme Q10 3 mg/100 g i.v. (femoral vein) 60 minutes before
[17] = 40, 200, 1000 mg/Kg/day oral, 5 weeks
[18] = 6, 60, 600 mg/Kg/day oral, 23 days
[19] = 6, 60, 600 mg/Kg/day oral, 26 weeks
[20] = spontaneous pneumonia and aspiration pneumonia due to erroneous administration, dose group not stated

COC1=C(OC)C(=O)C(C/C=C(\C)CC/C=C(\C)CC/C=C(\C)CC/C=C(\C)CC/C=C(\C)CC/C=C(\C)CC/C=C(\C)CC/C=C(\C)CC/C=C(\C)CCC=C(C)C)=C(C)C1=O [Coenzyme Q10]
acute toxicity (conclusion) (mice of ICR-JCL strain): extremely low | general condition, body weight, food intake, autopsy findings (mice of ICR-JCL strain; [8]): no change was recognized | Maximum dose (no case of deaths), intramuscular (mice of ICR-JCL strain; [9]): 500 mg/kg | Maximum dose (no case of deaths), intravenous (mice of ICR-JCL strain; [10]): 250 mg/kg | deaths (mice of ICR-JCL strain; [11]): no case of deaths | Maximum dose (no case of deaths), oral (mice of ICR-JCL strain; [12]): 4000 mg/kg | LD50 (mice of ICR-JCL strain; [13]): far higher than the maximum dose mentioned above | Maximum dose (no case of deaths), subcutaneous (mice of ICR-JCL strain; [14]): 500 mg/kg | fourth response, quantity of pancreatic juice, P versus placebo [1, 15]: < 0.05 | quantity of pancreatic juice secreted, comparison with placebo group [1, 15]: significantly superior | second response, quantity of pancreatic juice, P versus placebo [1, 15]: < 0.02 | third response, quantity of pancreatic juice, P versus placebo [1, 15]: < 0.02 | first response, quantity of pancreatic juice secreted, ratio to placebo group [1, 16]: about 1.5 times | general condition and body weight versus control group (rats of Wistar strain [2]; [17]): no difference | hematological test and biochemical test of blood and urine (rats of Wistar strain [2]; [17]): No significant change was recognized | weight of each organ (rats of Wistar strain [2]; [17]): no significant change | macroscopical and histological observation (rats of Wistar strain [2]; hematoxylin-eosine staining and liver fat staining, 5 weeks): abnormality was not recognized | toxicity (conclusion) (rats of Wistar strain [2]; oral, 5 weeks): there was not recognized the toxicity seemingly due to the administration | dead animals during the experiment (rats of Wistar strain [2]; spontaneous pneumonia and aspiration pneumonia due to error of administration, dose group not stated): four | acute toxicity (conclusion) (rats of Wistar strain [3]): extremely low | general condition, body weight, food intake, autopsy findings (rats of Wistar strain [3]; [8]): no change was recognized | Maximum dose (no case of deaths), intramuscular (rats of Wistar strain [3]; [9]): 500 mg/kg | Maximum dose (no case of deaths), intravenous (rats of Wistar strain [3]; [10]): 250 mg/kg | deaths (rats of Wistar strain [3]; [11]): no case of deaths | Maximum dose (no case of deaths), oral (rats of Wistar strain [3]; [12]): 4000 mg/kg | LD50 (rats of Wistar strain [3]; [13]): far higher than the maximum dose mentioned above | Maximum dose (no case of deaths), subcutaneous (rats of Wistar strain [3]; [14]): 500 mg/kg | general condition and increase of body weight versus control group (rabbits; [18]): no difference | hematological test and biochemical test of blood (rabbits; [18]): Abnormal findings were not obtained | weight of each organ (rabbits; [18]): no effect on the weight of each organ | electron-microscopic observation of liver (rabbits; 7th, 14th and 24th days): there were not recognized abnormal findings on the minute structure of the liver | macroscopical and histological observation (rabbits; hematoxylin-eosine staining and liver fat staining): abnormalities were not recognized | toxicity (conclusion) (rabbits; oral, 23 days): there were not recognized the findings wherein the toxicity of Coenzyme Q10 will be suggested | solubility in acetone ([4]; acetone): soluble | solubility in benzene ([4]; benzene): easily soluble | solubility in carbon tetrachloride ([4]; carbon tetrachloride): easily soluble | solubility in chloroform ([4]; chloroform): easily soluble | solubility in ethanol ([4]; ethanol): insoluble | solubility in ether ([4]; ether): soluble | solubility in methanol ([4]; methanol): hardly soluble | solubility in water ([4]; water): hardly soluble | adverse effects in mothers, fetuses and newborns (mice): no adverse effects were noted | overall safety [5]: a very safe drug, without side-effects | second through fourth responses, quantity of amylase, P versus placebo ([6]; 3 mg/100 g femoral vein, after pancreozymin, all cases): higher than 0.05 | first response, quantity of amylase secreted, ratio to placebo group [6, 16]: about 1.6 times | quantity of amylase secreted, comparison with placebo group ([6]; second through fourth responses, 3 mg/100 g femoral vein, after pancreozymin): significantly superior | adverse effects in mothers, fetuses and newborns (rats): no adverse effects were noted | body weight (rats of Wistar strain [7]; [19]): increased the same as that of the control group | general condition versus control group (rats of Wistar strain [7]; [19]): no difference | weights of organs (rats of Wistar strain [7]; 26 weeks): no significant increase and decrease | leukocytal percentages (rats of Wistar strain [7]; hematological findings, 26 weeks): some increase and decrease, but do not provide the mutual relation depending upon the dose; the percentages being within the range of physiological fluctuations | macroscopical and histological observation (rats of Wistar strain [7]; hematoxylin-eosine staining and liver fat staining, versus control group): abnormalities were not recognized | toxicity (conclusion) (rats of Wistar strain [7]; oral, 26 weeks): no toxicity was observed | deaths, females (rats of Wistar strain [7]; [20]): three | deaths, males (rats of Wistar strain [7]; [20]): 11 males | biochemical tests of blood and urine (rats of Wistar strain [7]; versus control group, 26 weeks): No significant changes were recognized
